What was measured:
Experiment in all cases: relative viability (nuclei count vs DMSO), 5 days (fraction); higher = more cells survive
Selisistat + AZD7762 = compound: C1CC(C2=C(C1)C3=C(N2)C=CC(=C3)Cl)C(=O)N [Selisistat] + NC(=O)Nc1cc(-c2cccc(F)c2)sc1C(=O)N[C@H]1CCCNC1 [AZD7762] (partner 0.2 µM)
Outline: (§1)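 Relative viability divides the nuclei count in treated wells by that in vehicle wells. Lung cancer cell lines were seeded in 1536-well plates, dosed by pin tool the next day, and fixed and stained after 5 days in one step with final 0.05% Triton X-100, 1% formaldehyde and 1 ug/ml Hoechst. Dosing was a single drug or a fixed anchor-drug dose plus five library-drug doses (not always all listed) in √10 steps, and values are medians of duplicate plates imaged at 4×.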

Selisistat + Luminespib = compound: C1CC(C2=C(C1)C3=C(N2)C=CC(=C3)Cl)C(=O)N [Selisistat] + CCNC(=O)c1noc(-c2cc(C(C)C)c(O)cc2O)c1-c1ccc(CN2CCOCC2)cc1 [Luminespib] (partner 0.01 µM)
Outline: as §1

Serdemetan + Palbociclib = compound: c1ccc2c(CCNc3ccc(Nc4ccncc4)cc3)c[nH]c2c1 [Serdemetan] + CC(=O)c1c(C)c2cnc(Nc3ccc(N4CCNCC4)cn3)nc2n(C2CCCC2)c1=O [Palbociclib] (partner 0.5 µM)
Outline: as §1

Selisistat + Palbociclib = compound: C1CC(C2=C(C1)C3=C(N2)C=CC(=C3)Cl)C(=O)N [Selisistat] + CC(=O)c1c(C)c2cnc(Nc3ccc(N4CCNCC4)cn3)nc2n(C2CCCC2)c1=O [Palbociclib] (partner 0.5 µM)
Outline: as §1

Cell Line	relative viability (Selisistat + AZD7762; first compound 0.4 µM)	relative viability (Selisistat + AZD7762; first compound 1.265 µM)	relative viability (Selisistat + AZD7762; first compound 4 µM)	relative viability (Selisistat + AZD7762; first compound 12.65 µM)	relative viability (Selisistat + AZD7762; first compound 40 µM)	relative viability (Selisistat + Luminespib; first compound 0.4 µM)	relative viability (Selisistat + Luminespib; first compound 1.265 µM)	relative viability (Selisistat + Luminespib; first compound 4 µM)	relative viability (Selisistat + Luminespib; first compound 12.65 µM)	relative viability (Selisistat + Luminespib; first compound 40 µM)	relative viability (Serdemetan + Palbociclib; first compound 0.04 µM)	relative viability (Serdemetan + Palbociclib; first compound 0.1265 µM)	relative viability (Serdemetan + Palbociclib; first compound 0.4 µM)	relative viability (Serdemetan + Palbociclib; first compound 1.265 µM)	relative viability (Serdemetan + Palbociclib; first compound 4 µM)	relative viability (Selisistat + Palbociclib; first compound 0.4 µM)	relative viability (Selisistat + Palbociclib; first compound 1.265 µM)	relative viability (Selisistat + Palbociclib; first compound 4 µM)	relative viability (Selisistat + Palbociclib; first compound 12.65 µM)	relative viability (Selisistat + Palbociclib; first compound 40 µM)
LCLC-103H	0.807	0.744	0.853	0.751	0.749	1.06	0.936	0.926	0.863	1.06	0.479	0.474	0.453	0.389	0.419	0.3	0.509	0.452	0.435	0.558
PC-3 [JPC-3]	0.834	0.861		0.744	0.695	0.784	0.68	0.6	0.687	0.657	0.562	0.492	0.528	0.467	0.519	0.608	0.636		0.571	0.529
BEN	0.74	0.535	0.471	0.71	0.649	0.429	0.242	0.33	0.207	0.383	0.513	0.494	0.504	0.365	0.449	0.467	0.502	0.486	0.448	0.459
NCI-H1666	0.841	0.83	0.806	0.895	0.96	1.05	1	0.969	0.995	0.878	0.645	0.655	0.63		0.66	0.658	0.613	0.642	0.659	0.611
LC-2-ad	0.827	0.814	0.68	0.775	0.9	1.13		1.02	1	1.06	0.438	0.449	0.507	0.471	0.44	0.508	0.49	0.498	0.502	0.555
ChaGo-K-1	0.787	0.828	0.883	0.838	0.8	0.586	0.581	0.648	0.526	0.61	0.864	0.746	0.488	0.271	0.296	0.91	0.918	0.832	0.816	0.889
NCI-H1975	0.684	0.661	0.581	0.647	0.646	0.147	0.301	0.168	0.131	0.337	0.691	0.662	0.434	0.331	0.783	0.585	0.585	0.38	0.478	0.523
NCI-H1993	0.793	0.791		0.954	0.816	0.868	0.685	0.831	1.06	0.846	0.64	0.603	0.736	0.699	0.569	0.703	0.67		0.623	0.676

From the supplement of paper PMC10307832
